According to patent publication US10183950B2, “Thienopyrimidine inhibitors of atypical protein kinase C” (Cancer Research Technology Limited, priority 2011, dated 2019):

Molecular target: T1, kinase-domain human PKCι (Homo sapiens, UniProt P41743)
T1 construct: Recombinant, kinase-domain human PKCι is expressed and purified in-house; made in house
T1 sequence (P41743 254-522 limits assumed): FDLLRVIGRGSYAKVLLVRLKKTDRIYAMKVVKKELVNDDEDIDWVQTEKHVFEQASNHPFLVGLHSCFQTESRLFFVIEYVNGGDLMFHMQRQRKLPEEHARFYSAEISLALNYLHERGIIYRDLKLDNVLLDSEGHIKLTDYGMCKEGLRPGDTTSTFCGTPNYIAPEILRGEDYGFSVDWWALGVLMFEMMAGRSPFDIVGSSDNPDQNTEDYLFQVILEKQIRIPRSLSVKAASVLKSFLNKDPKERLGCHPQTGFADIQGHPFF
Experiment: PKCι IC50 IMAP fluorescence polarisation assay, kinase-domain enzyme
Assay type: biochemical
Details: kinase domain PKCi at 2 μM ATP; read-out: IC50 in IMAP assay against kinase domain PKCi

First: Cc1csc2c(N3CCNCC3)nc(-c3ccncc3)nc12 [compound 363, 7-Methyl-4-piperazin-1-yl-2-pyridin-4-yl-thieno[3,2-d]pyrimidine]
Second: c1cnc2sc3c(N4CCCNCC4)nc(-c4ccncc4)nc3c2c1 [compound 377, 4-[1,4]Diazepan-1-yl-2-pyridin-4-yl-pyrido[3′,2′:4,5]thieno[3,2-d]pyrimidine]
The IC50 of the first is lower: 100 to 1000 nM for the first, 1000 to 10000 nM for the second.

Compared with Clc1cccc2sc3c(OC[C@H]4CCCN4)nc(-c4ccncc4)nc3c12 [compound 478, 9-Chloro-2-pyridin-4-yl-4-((R)-1-pyrrolidin-2-ylmethoxy)-benzo[4,5]thieno[3,2-d]pyrimidine], C[C@H](N)CNc1nc(-c2ccncc2)nc2c1sc1cccc(Cl)c12 [compound 373, (S)-N*1*-(9-Chloro-2-pyridin-4-yl-benzo[4,5]thieno[3,2-d]pyrimidin-4-yl)-propane-1,2-diamine] is lower in IC50: 10000 to 40000 nM for the first, 100 to 1000 nM for the second. The second is the more potent here.

First: Cc1csc2c(NC[C@H](C)N)nc(-c3ccncc3)nc12 [compound 361, (S)-N*1*-(7-Methyl-2-pyridin-4-yl-thieno[3,2-d]pyrimidin-4-yl)-propane-1,2-diamine]
Second: C[C@H](N)CNc1nc(-c2ccncc2)nc2cc(C(C)(C)C)sc12 [compound 307, (S)-N*1*-(6-tert-Butyl-2-pyridin-4-yl-thieno[3,2-d]pyrimidin-4-yl)-propane-1,2-diamine]
The IC50 of the first is lower: 100 to 1000 nM for the first, 10000 to 40000 nM for the second. The first is the more potent here.

C[C@H](N)CNc1nc(-c2ccncc2)nc2c1sc1ncccc12 [compound 378, (S)-N*1*-(2-Pyridin-4-yl-pyrido[3′,2′:4,5]thieno[3,2-d]pyrimidin-4-yl)-propane-1,2-diamine] and CN(CCN)c1nc(-c2ccncc2)nc2c1sc1cccc(Cl)c12 [compound 385, N*1*-(9-Chloro-2-pyridin-4-yl-benzo[4,5]thieno[3,2-d]pyrimidin-4-yl)-N*1*- methyl-ethane-1,2-diamine] fall in the same range of IC50: 1000 to 10000 nM for the first, 1000 to 10000 nM for the second.

Same assay, conditions: kinase domain PKCi at 2 μM ATP; read-out: IC50 in IMAP assay against kinase domain PKCi (Activity)

First: N[C@@H](COc1nc(-c2ccncc2)nc2sc3c(c12)CCCC3)Cc1cccc2ccccc12 [compound 173, (R)-1-Naphthalen-1-ylmethyl-2-(2-pyridin-4-yl-5,6,7,8-tetrahydro-benzo[4,5]thieno[2,3-d]pyrimidin-4-yloxy)-ethylamine]
Second: N[C@@H](COc1nc(-c2ccncc2)nc2sc3c(c12)CCCC3)Cc1ccccc1 [compound 142, (R)-2-Phenyl-1-(2-pyridin-4-yl-5,6,7,8-tetrahydro-benzo[4,5]thieno[2,3-d]pyrimidin-4-yloxymethyl)-ethylamine]
The IC50 of the first is lower: 1000 to 10000 nM for the first, 10000 to 40000 nM for the second. The first is the more potent here.

c1ccc(CCN2CCN(c3nc(-c4ccncc4)nc4sc5c(c34)CCCC5)CC2)cc1 [compound 132, 4-(4-Phenethyl-piperazin-1-yl)-2-pyridin-4-yl-5,6,7,8-tetrahydro-benzo[4,5]thieno[2,3-d]pyrimidine] and CCCN1CCN(c2nc(-c3ccncc3)nc3sc4c(c23)CCCC4)CC1 [compound 133, 4-(4-Propyl-piperazin-1-yl)-2-pyridin-4-yl-5,6,7,8-tetrahydro-benzo[4,5]thieno[2,3-d]pyrimidine] fall in the same range of IC50: 10000 to 40000 nM for the first, 10000 to 40000 nM for the second.

CC(C)C[C@@H](N)COc1nc(-c2ccncc2)nc2sc3c(c12)CCCC3 [compound 146, (R)-3-Methyl-1-(2-pyridin-4-yl-5,6,7,8-tetrahydro-benzo[4,5]thieno[2,3-d]pyrimidin-4-yloxymethyl)-butylamine] and CC(C)[C@H](N)COc1nc(-c2ccncc2)nc2sc3c(c12)CCCC3 [compound 151, (S)-2-Methyl-1-(2-pyridin-4-yl-5,6,7,8-tetrahydro-benzo[4,5]thieno[2,3-d]pyrimidin-4-yloxymethyl)-propylamine] fall in the same range of IC50: 1000 to 10000 nM for the first, 1000 to 10000 nM for the second.

First: Cc1sc2nc(-c3ccncc3)nc(NC[C@H](C)N)c2c1C [compound 37, (S)-N*1*-(5,6-Dimethyl-2-pyridin-4-yl-thieno[2,3-d]pyrimidin-4-yl)-propane-1,2-diamine]
Second: CCc1c(C)sc2nc(-c3ccncc3)nc(NC[C@@H](C)N)c12 [compound 32, (R)-N*1*-(5-Ethyl-6-methyl-2-pyridin-4-yl-thieno[2,3-d]pyrimidin-4-yl)-propane-1,2-diamine]
The IC50 of the first is lower: 1000 to 10000 nM for the first, 10000 to 40000 nM for the second. The first is the more potent here.

N[C@H](COc1nc(-c2ccncc2)nc2sc3c(c12)CCCC3)c1ccccc1 [compound 155, (S)-1-Phenyl-2-(2-pyridin-4-yl-5,6,7,8-tetrahydro-benzo[4,5]thieno[2,3-d]pyrimidin-4-yloxy)-ethylamine] and Cc1cccc(C[C@H](N)COc2nc(-c3ccncc3)nc3sc4c(c23)CCCC4)c1 [compound 165, (S)-1-(3-Methyl-benzyl)-2-(2-pyridin-4-yl-5,6,7,8-tetrahydro-benzo[4,5]thieno[2,3-d]pyrimidin-4-yloxy)-ethylamine] fall in the same range of IC50: 1000 to 10000 nM for the first, 1000 to 10000 nM for the second.

First: Cc1c(C(N)=O)sc2nc(-c3ccncc3)nc(NCCN)c12 [compound 39, 4-(2-Amino-ethylamino)-5-methyl-2-pyridin-4-yl-thieno[2,3-d]pyrimidine-6-carboxylic acid amide]
Second: Cc1sc2nc(-c3ccncc3)nc(NCCN)c2c1-c1ccccc1 [compound 91, N*1*-(6-Methyl-5-phenyl-2-pyridin-4-yl-thieno[2,3-d]pyrimidin-4-yl)-ethane-1,2-diamine]
The IC50 of the first is lower: 100 to 1000 nM for the first, 1000 to 10000 nM for the second. The first is the more potent here.

First: CC(C)Cc1csc2nc(-c3ccncc3)nc(NC[C@H](C)N)c12 [compound 29, (S)-N*1*-(5-Isobutyl-2-pyridin-4-yl-thieno[2,3-d]pyrimidin-4-yl)-propane-1,2-diamine]
Second: CCc1cc2c(NC[C@H](C)N)nc(-c3ccncc3)nc2s1 [compound 34, (S)-N*1*-(6-Ethyl-2-pyridin-4-yl-thieno[2,3-d]pyrimidin-4-yl)-propane-1,2-diamine]
The IC50 of the first is lower: 100 to 1000 nM for the first, 1000 to 10000 nM for the second. The first is the more potent here.

c1cc(-c2nc(OC3CNC3)c3c4c(sc3n2)CCCC4)ccn1 [compound 152, 4-(Azetidin-3-yloxy)-2-pyridin-4-yl-5,6,7,8-tetrahydro-benzo[4,5]thieno[2,3-d]pyrimidine] and CNCCOc1nc(-c2ccncc2)nc2sc3c(c12)CCCC3 [compound 137, Methyl-[2-(2-pyridin-4-yl-5,6,7,8-tetrahydro-benzo[4,5]thieno[2,3-d]pyrimidin-4-yloxy)-ethyl]-amine] fall in the same range of IC50: 1000 to 10000 nM for the first, 1000 to 10000 nM for the second.

First: Cc1csc2nc(-c3ccncc3)nc(N3CCNCC3)c12 [compound 94, 5-Methyl-4-piperazin-1-yl-2-pyridin-4-yl-thieno[2,3-d]pyrimidine]
Second: CN1CCCN(c2nc(-c3ccncc3)nc3sc4c(c23)CCCC4)CC1 [compound 4, 4-(4-Methyl-[1,4]diazepan-1-yl)-2-pyridin-4-yl-5,6,7,8-tetrahydro-benzo[4,5]thieno[2,3-d]pyrimidine]
The IC50 of the first is lower: less than 100 nM for the first, 100 to 1000 nM for the second.

First: CC[C@H](N)COc1nc(-c2ccncc2)nc2sc3c(c12)CCCC3 [compound 150, (S)-1-(2-Pyridin-4-yl-5,6,7,8-tetrahydro-benzo[4,5]thieno[2,3-d]pyrimidin-4-yloxymethyl)-propylamine]
Second: COc1ccc(C[C@@H](N)COc2nc(-c3ccncc3)nc3sc4c(c23)CCCC4)cc1 [compound 169, (R)-1-(4-Methoxy-benzyl)-2-(2-pyridin-4-yl-5,6,7,8-tetrahydro-benzo[4,5]thieno[2,3-d]pyrimidin-4-yloxy)-ethylamine]
The IC50 of the first is lower: 1000 to 10000 nM for the first, 10000 to 40000 nM for the second.

First: c1cc(-c2nc(OC[C@H]3CCCCN3)c3c4c(sc3n2)CCCC4)ccn1 [compound 178, 4-((R)-1-Piperidin-2-ylmethoxy)-2-pyridin-4-yl-5,6,7,8-tetrahydro-benzo[4,5]thieno[2,3-d]pyrimidine]
Second: c1n[nH]cc1-c1nc(N2CCCNCC2)c2c3c(sc2n1)CCCC3 [compound 186, 4-[1,4]Diazepan-1-yl-2-(1H-pyrazol-4-yl)-5,6,7,8-tetrahydro-benzo[4,5]thieno[2,3-d]pyrimidine]
The IC50 of the first is higher: 1000 to 10000 nM for the first, 100 to 1000 nM for the second.

First: Cc1n[nH]c(C)c1-c1nc(NC[C@@H](C)N)c2c3c(sc2n1)CCCC3 [compound 193, (R)-N*1*-[2-(3,5-Dimethyl-1H-pyrazol-4-yl)-5,6,7,8-tetrahydro-benzo[4,5]thieno[2,3-d]pyrimidin-4-yl]-propane-1,2-diamine]
Second: C[C@@H](N)CNc1nc(-c2ccncc2F)nc2sc3c(c12)CCCC3 [compound 100, (R)-N*1*-[2-(3-Fluoro-pyridin-4-yl)-5,6,7,8-tetrahydro-benzo[4,5]thieno[2,3-d]pyrimidin-4-yl]-propane-1,2-diamine]
The IC50 of the first is higher: 10000 to 40000 nM for the first, 1000 to 10000 nM for the second. The second is the more potent here.

c1n[nH]cc1-c1nc(N2CCNCC2)c2c3c(sc2n1)CCCC3 [compound 185, 4-Piperazin-1-yl-2-(1H-pyrazol-4-yl)-5,6,7,8-tetrahydro-benzo[4,5]thieno[2,3-d]pyrimidine] and Cc1n[nH]c(C)c1-c1nc(N2CCNCC2)c2c3c(sc2n1)CCCC3 [compound 190, 2-(3,5-Dimethyl-1H-pyrazol-4-yl)-4-piperazin-1-yl-5,6,7,8-tetrahydro-benzo[4,5]thieno[2,3-d]pyrimidine] fall in the same range of IC50: 100 to 1000 nM for the first, 100 to 1000 nM for the second.

Compared with N[C@@H](CNc1nc(-c2ccncc2)nc2sc3c(c12)CCCC3)Cc1c[nH]c2ccccc12 [compound 7, (R)-3-(1H-Indol-3-yl)-N*1*- (2-pyridin-4-yl-5,6,7,8-tetrahydro-benzo[4,5]thieno[2,3-d]pyrimidin-4-yl)-propane-1,2-diamine], Cc1csc2c(NC[C@@H](N)Cc3ccccc3)nc(-c3ccncc3)nc12 [compound 302] is lower in IC50: 1000 to 10000 nM for the first, less than 100 nM for the second. The second is the more potent here.

CC(C)c1cc2c(NCCN)nc(-c3ccncc3)nc2s1 [compound 40, N*1*-(6-Isopropyl-2-pyridin-4-yl-thieno[2,3-d]pyrimidin-4-yl)-ethane-1,2-diamine] gave an IC50 of 1000 to 10000 nM.
